Assay results from PubChem BioAssay (NCI).
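Briefly, cells in 96-well plates were exposed to five compound concentrations for 48 h, and endpoints were estimated by linear interpolation. Abbreviation: GI50, concentration required for 50% inhibition of growth. Definition used: TGI = concentration required for complete inhibition of growth.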

Key:
Test in all cases: inhibition of tumour cell growth, NCI panel, 48 h
CAKI-1 renal = test system: CAKI-1 renal
MCF7 breast = test system: MCF7 breast
EKVX NSCLC = test system: EKVX NSCLC
K-562 leukemia = test system: K-562 leukemia
SK-MEL-2 melanoma = test system: SK-MEL-2 melanoma
NCI-H23 lung = test system: NCI-H23 lung
CCRF-CEM leukemia = test system: CCRF-CEM leukemia
A549 NSCLC = test system: A549 NSCLC
SN12C renal = test system: SN12C renal
NCI-H460 lung = test system: NCI-H460 lung

Row | Structure (SMILES) | TGI (CAKI-1 renal) | TGI (MCF7 breast) | TGI (EKVX NSCLC) | TGI (K-562 leukemia) | TGI (SK-MEL-2 melanoma) | TGI (NCI-H23 lung) | TGI (CCRF-CEM leukemia) | TGI (A549 NSCLC) | TGI (SN12C renal) | TGI (NCI-H460 lung) | GI50 (CAKI-1 renal) | GI50 (MCF7 breast) | GI50 (EKVX NSCLC) | GI50 (K-562 leukemia) | GI50 (SK-MEL-2 melanoma) | GI50 (NCI-H23 lung) | GI50 (CCRF-CEM leukemia) | GI50 (A549 NSCLC) | GI50 (SN12C renal) | GI50 (NCI-H460 lung)
1 | CN(C)C(=S)SN(C)C(=O)Nc1ccccc1 | 60.5 µM | > 47.1 µM | > 100 µM | > 100 µM | > 100 µM | > 80.5 µM | > 91.1 µM | > 100 µM | 89.3 µM | > 53.7 µM |  |  |  |  |  |  |  |  |  | 
2 | O=C(C[C@@H](C(=O)NCc1cccc(C(F)(F)F)c1)N1C(=O)[C@@H](N2C(=O)OC[C@@H]2c2ccccc2)[C@H]1/C=C/c1ccccc1)NC1CCN(Cc2ccccc2)CC1 | 34.4 µM | 3.51 µM | 41.7 µM | 4.17 µM | 30.6 µM | 17.6 µM | 7.84 µM | 21.4 µM | 30.7 µM | 21.8 µM | 14 µM | 1.61 µM | 15.1 µM | 1.77 µM | 14.1 µM | 4.19 µM | 2.79 µM | 5.86 µM | 9.46 µM | 6.58 µM
3 | CC(=O)[O][Hg][c]1c(C)c(C)c(C)c(C)c1C | 7.69 µM | 2.13 µM | 3.54 µM | 2.63 µM | 3.37 µM | 2.52 µM | 9.71 µM | 27.8 µM | 2.97 µM | 2.26 µM | 3.02 µM | 0.843 µM | 1.89 µM | 0.468 µM | 1.41 µM | 0.98 µM | 0.895 µM | 10.7 µM | 1.53 µM | 0.747 µM
4 | O=[N+]([O-])c1ccc2nnnn2c1 | 63.1 µM | > 100 µM | > 100 µM | > 100 µM | 67.1 µM | > 100 µM |  | > 100 µM | > 100 µM | > 100 µM |  |  |  |  |  |  |  |  |  | 
5 | CC(C)CC(N)C(=O)O (stereo not given) | > 100 µM | > 100 µM |  | > 100 µM | > 100 µM | > 100 µM | > 100 µM | > 100 µM | > 100 µM | > 100 µM |  |  |  |  |  |  |  |  |  | 
6 | Cc1cc(C)cc(Nc2cc(C)nc3nc(C(F)(F)F)nn23)c1 | > 100 µM | > 100 µM |  |  | > 100 µM | > 100 µM |  |  | > 100 µM | > 100 µM | > 100 µM | > 100 µM |  |  | > 100 µM | > 100 µM |  |  | > 100 µM | > 100 µM
7 | N#C/C(C(=S)Nc1ccccc1)=C1/NN=C2c3ccccc3C(=O)NN21 | > 100 µM | 77.5 µM | > 100 µM | > 100 µM | 53.8 µM |  |  | > 100 µM | > 100 µM | 73.2 µM | 34.7 µM | 22.8 µM | 35.3 µM | 22.1 µM | 21 µM |  |  | 34 µM | 40.7 µM | 26.3 µM
8 | COc1cccc(NCc2nnc(Nc3ccc(Cl)cc3)c3ccccc23)c1 |  | 6.4 µM | 6.4 µM | 13.1 µM | 3.98 µM | 6.74 µM | 13.4 µM | 9.42 µM | 10.7 µM | 7.14 µM |  | 0.938 µM | 0.588 µM | 1.49 µM | 0.708 µM | 1.22 µM | 2.73 µM | 1.93 µM | 2.52 µM | 2.69 µM
9 | CCCCNC(=O)NS(=O)(=O)c1ccc(N2N=C(c3ccc(C)cc3C)CC2c2ccc(N(C)C)cc2)cc1 (stereo not given) | > 100 µM | > 100 µM |  | > 100 µM | 8.46 µM | > 100 µM | 46.7 µM | > 100 µM | 89.5 µM | 15.9 µM | 3.38 µM | 2.63 µM |  | 3.58 µM | 3.13 µM | 4.92 µM | 3.32 µM | 3.2 µM | 3.07 µM | 3.33 µM
10 | C[C@]12CC[C@@H]3c4ccc(O)cc4C[C@@H](CCCCCCCCCS(=O)CCCC(F)(F)C(F)(F)F)[C@H]3[C@@H]1CC[C@@H]2O (stereo not given in full) | > 100 µM | > 100 µM | > 100 µM |  | > 100 µM | > 100 µM | > 100 µM | > 100 µM | > 100 µM | > 100 µM | > 100 µM |  | > 100 µM |  | > 100 µM | > 100 µM | > 100 µM | > 69.9 µM | > 100 µM | > 100 µM
11 | COc1ccc(C(=O)/C=C/c2cccnc2Nc2cc(OC)c(OC)c(OC)c2)cc1 | 14.7 µM | 11 µM | 19.2 µM |  | 21 µM | 17.6 µM | 6.15 µM | 18.5 µM | 9.69 µM | 8.57 µM | 2.42 µM | 0.106 µM | 5.11 µM |  | 7.27 µM | 2.24 µM | 0.711 µM | 1.67 µM | 2.43 µM | 1.84 µM
12 | COc1cc(C(=O)O[C@H](C(N)=O)[C@]2(C)CO2)c2ccccc2c1 | 39.8 µM | > 100 µM | 50 µM |  | 42.7 µM | 21.8 µM | 58 µM | 73 µM |  | 57.1 µM | 20.6 µM | 27.3 µM | 18 µM |  | 17.2 µM | 7.95 µM | 10.9 µM | 15.4 µM |  | 10.4 µM
13 | CCCCC/C=C/C/C=C/CCCCCCCC1=NC(C)(C)CN1C(C)C | 2.57 µM | 2.87 µM | 2.73 µM |  | 3.35 µM | 3.24 µM |  | 3.2 µM | 4.08 µM | 3.34 µM | 1.3 µM | 1.54 µM | 1.3 µM |  | 1.85 µM | 1.49 µM |  | 1.77 µM | 1.71 µM | 1.82 µM
14 | COc1ccc(-n2c(SCc3cc(OC)c(OC)c(OC)c3)nc3ccc(C)cc3c2=O)cc1 | > 100 µM | > 100 µM |  | > 100 µM | > 100 µM | > 100 µM | > 100 µM | > 100 µM | > 100 µM | > 100 µM | 4.53 µM | 3.71 µM |  | 3.89 µM | 8.73 µM | 32.7 µM | 1.58 µM | 4.75 µM | 52.7 µM | 3.83 µM
15 | C[C@]12CC[C@@H]3c4ccc(O)cc4CC[C@H]3[C@@H]1CC[C@@H]2NS(=O)(=O)c1ccc(C(F)(F)F)cc1 | 8.06 µM | 5 µM |  | 8.69 µM | 4 µM | 5.43 µM | 9.8 µM | 4.98 µM | 3.36 µM | 4.11 µM | 2.78 µM | 2.26 µM |  | 3.16 µM | 2.13 µM | 2.08 µM | 2.77 µM | 2.05 µM | 1.75 µM | 1.98 µM
